# Data taken from patent US8394776B2, “Use of ursolic acid saponin,oleanolic acid saponin in preparation of increasing leucocytes and/or platelet medicine” (Chengdu Di'Ao Jiuhong Pharmaceutical Factor, priority 2007, dated 2013).
# Marks after values point to notes of the source that are not given here.
# Experiments:
# [1] = tested on: WBC; experiment: 60Co-γ-induced leukopenia in mice: WBC; format: in vivo, Kunming mice
# From the text: In order to illustrate the present invention in detail, with a model induced by ^60Co-γ rays, the effects of G-1 and G-22 on leukocytes of chemotherapy-induced-leukopenia mice were compared. The specific operation and the results are as follows.
# Healthy Kunming mice, of which half were male and the other half were female, were divided into 6 groups randomly, with 17-18 in each group. Blood was taken from caudal vein to determine the normal hemogram (leucocyte, erythrocyte, platelet and hemoglobin), and adjustments were made according to body weights and hemogram results. The normal control group and model group were given isometric physiological saline once a day for 7 days, and then the post-radiation hemogram was determined. Except the normal control group, other groups were each subjected to a whole body exposure to ^60Co-γ rays at a total dose of 3.0 Gy to prepare the models of leukopenia in mice, followed by further administration for 14 days. The G-CSF group was adminitrated through subcutaneous injection for 5 days from the irradiation day on and the hemogram was determined by taking blood respectively on day 3, day 7 and day 14 after irradiation.
# [2] = tested on: erythrocytes; experiment: Comparison of hemolytic activities (HD50); format: cell-based, rabbit
# Procedure: The test samples were dissolved in DMSO/physiological saline (1:4) as a solvent to generate the tested concentration gradients of 40, 80, 120, 160, 200 μg/ml. Blood (25 ml) was taken from a rabbit heart, poured into an erlenmeyer flask containing glass beads and shook gently for 10 min to remove fibrinogen so as to convert the blood into defidrinated blood. The resultant blood was transferred into a graduation centrifugal tube. About 10 times physiological saline was added, shook up and centrifuged at 2000 r/min for 5 minutes. The supernatant was removed, and the precipitated erythrocytes were washed with physiological saline again by the above method for 4 times until the supernatant was colorless and transparent. The resulant erythrocytes were prepared into a 10% suspension using physiological saline for testing. 250 μl of the 10% erythrocyte suspension was added into 2.5 ml of a tested sample, solvent (blank control) or distilled water (positive control), mixed thoroughly, and immediately placed in a thermotank maintained at 37° C. for incubation; and it was taken out 1 hour later and centrifuged at 3000 r/min for 5 minutes. The supernatant was taken for determining the OD value at 540 nm with a spectrophotometer. Hemolysis (Hemolysis Percentage)=(absorbance of sample−absorbance of blank control)×100%÷(absorbance of positive control-absorbance of blank control); and the data processing was performed by SPSS13.0 statistical software with drug concentration as an independent variable X and hemolysis as a dependent variable Y to obtain a linear regression equation; then, the drug concentration causing 50% hemolysis, i.e HD50, was calculated according to the equation. A P-value <0.05 was considered statistically significant.
# [3] = tested on: platelets (PLT); experiment: Cyclophosphamide-induced leukopenia in mice: platelets (PLT); format: in vivo, Kunming mice; details: Experimental Example 3, 0.8 mg/kg
# Procedure: (§1) Further, in vivo experiments were carried out on the compounds involved in the present invention using animal models of cyclophosphamide-induced leukopenia in mice. Experimental methods are briefed as follows: Healthy Kunming mice, of which half were male and the other half were female, were divided into groups, each group incuding 18 mice, and those mice weighing 18-22 g were selected and divided into groups randomly according to their body weights. Each group was given a different drug, wherein the negative control group and model control group were given physiological saline of the same volume, and the positive control group was treated with granulocyte colony-stimulating factors 40 μg/kg through subcutaneous injection (injection volume: 0.1 ml/10 g). After administration for 3 days, except the negative control group, other treatment groups were treated with 100 mg/kg cyclophosphamide (CY) through lumbar injection once a day for three days to cause a decrease of leukocytes in mice. A drop of blood (20 μl) was taken from posterior orbital venous plexus to detect the hemogram to observe the situation of leukocytes and platelets on day 1, day 3 and/or day 5 after the final lumbar injection of cyclophosphamide (i.e day 1, day 3 and/or day 5 after modeling) (Note: Each treatment group was administrated incessantly). The mice were killed on day 5 after the final lumbar injection of cyclophosphamide (i.e day 5 after modeling), and the leukocytes (WBC) and platelets (PLT) of the hemogram index were counted.
# (§2) The purpose of this experiment is to study the effect of G-1, G-3, G-11 and G-12 of ursolic acid saponin and oleanolic acid saponin in increasing platelets, and to observe whether G-11 and G-12 of oleanolic acid saponin have an effect in increasing leukocytes.
# [4] = tested on: bone marrow mononuclear cell (BMMNC); experiment: Monocytic proliferation in bone marrow of mice cultured in vitro (SRB method); format: cell-based, KunMing mice; details: 1 μg/ml; cultured 5 days; versus blank control
# From the text: 15-20 KunMing mice (purchased from Laboratory Animal Center of Zhengzhou University, Henan) of either sex were killed by cervical vertebral dislocation. Bilateral thighbones were isolated and caput femoris was cut off. The marrow was washed repeatedly with serum-free RPMI1640 (Gibco Corp.), the wash solution containing marrow cells was collected, sucked and blew repeatedly with a pipette to make the cells disperse. After standing for a moment, the supernatant was sucked up and centrifugated at 100 g for 3 min to collect the cell pellet. The cells were resuspended in a culture media and brought to a volume of 5 ml. The cell suspension was added to the upper layer of a centrifugal tube containing 5 ml of a lymphocyte separation medium of mice and centrifugated at 400 g for 30 min. The milk-white bone marrow mononuclear cell (BMMNC) layer in the middle of the interface was collected and washed with serum-free medium RPMI1640 for three times to obtain a BMMNC suspension, which was inoculated into a 96-well plate at forty thousand per well after counting. Positive drugs rhG-CSF (recombinant granulocyte colony-stimulating factor, manufactured by QI LU Pharmaceutical Co., LTD., Shandong) or test samples of different concentrations were added, and meanwhile a blank control group without drug was established. They were cultured in a 5% CO2 incubator at 37 for 5 days. Cell proliferation was measured by a conventional SRB (Sigma) method in which OD at 490 nm was measured after being dyed with SRB. The growth rates of cell proliferation after drug treatment were calculated (Growth rate of cell proliferation=experimental group-blank control group/blank control group*100%).
# [5] = tested on: leukocytes (WBC); experiment: Cyclophosphamide-induced leukopenia in mice: leukocytes (WBC); format: in vivo, Kunming mice; details: 0.8 mg/kg; for leukocytes (WBC), Day1 after modeling: CY 100 mg/kg x 3 days
# Procedure: as §1
# This experiment mainly studies the effect of G-1, G-6 and G-8 of ursolic acid saponin in increasing leukocytes, and compares the therapeutic effects of aglycon of ursolic acid and oleanolic acid and of the compound G-22 which has been disclosed by a patent.
# as §2
# [6] = tested on: leucocytes; details: administrated through abdominal cavity; 25, 50 and 100 mg/kg; effect obvious at high dose; cited from earlier work
# [7] = 0.80 mg/kg i.g., 3.0 Gy whole body
smiles,measurement,setting,value
"C[C@H]1[C@H](C)CC[C@]2(C(=O)O[C@@H]3OC[C@H](O)[C@H](O)[C@H]3O)CC[C@]3(C)C(=CC[C@@H]4[C@@]5(C)CC[C@H](O[C@@H]6OC[C@H](O)[C@H](O)[C@H]6O)C(C)(C)[C@@H]5CC[C@]43C)[C@H]12 [Sample G-1, 3-O-(α-L-arabopyranosyl) ursolic acid-28-O-(α-L-arabopyranosyl) ester]",effect on leucocyte count of leukopenia mice (in words),"[1]; 0.80 mg/kg gastric perfusion, versus model group, day 7 and day 14 after irradiation",increased obviously
same,"WBC, 1 week after administration","[1]; 0.80 mg/kg i.g. once a day for 7 days, before irradiation",9.21 ± 2.16 109/L
same,"WBC, Day 3 after irradiation",[1]; [7],2.06 ± 0.75 109/L
same,"WBC, Day 7 after irradiation",[1]; [7],4.59 ± 1.52** 109/L
same,"WBC, Day 14 after irradiation",[1]; [7],6.37 ± 1.54** 109/L
same,"WBC, Normal","[1]; normal hemogram before administration (baseline), 0.80 mg/kg i.g. group",8.96 ± 1.58 109/L
same,HD50 (drug concentration causing 50% hemolysis),"[2]; 10% rabbit erythrocyte suspension, 37° C., 1 hour, from linear regression over 40-200 μg/ml",345 µg/mL
same,tendency to cause hemolysis (in words),"[2]; comparison among G-1, G-3, G-6, G-8",the most difficult to cause hemolysis
same,effect in increasing platelets (in words),[3],obvious effect in increasing leukocytes and platelets
same,"platelets, Day 1 after modelng",[3],504.67 ± 117.81
same,"platelets, Day 5 after modeling",[3],413.00 ± 218.95*★★
same,difference in increasing platelets compared with G-22 (in words),[3]; day 5 after modeling,significant difference in increasing leukocytes and platelets
same,"Growth Rate of Proliferation %, 1 μg/ml",[4],31.3%
same,"leukocytes (WBC), Day 3 after modeling",[5]; Experimental Example 2,7.85 ± 3.00**★★
same,"leukocytes (WBC), Day 5 after modeling",[5]; Experimental Example 2,15.46 ± 10.44
same,"leukocytes (WBC), Day1 after modeling",[5]; Experimental Example 2,1.14 ± 0.56Δ
same,difference in increasing leukocytes compared with G-22 (in words),"[5]; Experimental Example 2, especially on day 3 after modeling",obvious difference in increasing leukocytes
same,effect in increasing leukocytes (in words),[5]; Experimental Example 3,obvious effect in increasing leukocytes and platelets
same,"leukocytes, Day 1 after modeling",[5]; Experimental Example 3,0.98 ± 0.55
same,"leukocytes, Day 5 after modeling",[5]; Experimental Example 3,9.33 ± 5.17
same,difference in increasing leukocytes compared with G-22 (in words),"[5]; Experimental Example 3, day 5 after modeling",significant difference in increasing leukocytes and platelets
"CC1(C)CC[C@]2(C(=O)O)CC[C@]3(C)C(=CC[C@@H]4[C@@]5(C)CC[C@H](O)C(C)(C)[C@@H]5CC[C@]43C)[C@@H]2C1 [Sample G-20, oleanolic acid]","Growth Rate of Proliferation %, 1 μg/ml",[4],4.5%
same,effect in increasing leucocytes (in words),[6],effective in increasing leucocytes
same,effect in increasing leukocytes (in words),[5]; Experimental Example 2,no obvious effect in increasing leukocytes
same,"leukocytes (WBC), Day 3 after modeling",[5]; Experimental Example 2,3.88 ± 2.01
same,"leukocytes (WBC), Day 5 after modeling",[5]; Experimental Example 2,7.00 ± 3.22
same,"leukocytes (WBC), Day1 after modeling",[5]; Experimental Example 2,0.99 ± 0.40
"C[C@H]1[C@H](C)CC[C@]2(C(=O)O)CC[C@]3(C)C(=CC[C@@H]4[C@@]5(C)CC[C@H](O)C(C)(C)[C@@H]5CC[C@]43C)[C@H]12 [Sample G-21, ursolic acid]","Growth Rate of Proliferation %, 1 μg/ml",[4],7.9%
same,effect in increasing leucocytes (in words),[6],effective in increasing leucocytes
same,effect in increasing leukocytes (in words),[5]; Experimental Example 2,no obvious effect in increasing leukocytes
same,"leukocytes (WBC), Day 3 after modeling",[5]; Experimental Example 2,3.94 ± 1.73
same,"leukocytes (WBC), Day 5 after modeling",[5]; Experimental Example 2,7.07 ± 3.14
same,"leukocytes (WBC), Day1 after modeling",[5]; Experimental Example 2,1.01 ± 0.47
